Measurements reported in US9012182B2, “Method for producing purine nucleosides and nucleotides by fermentation using bacterium belonging to the genus Bacillus or Escherichia” (Ajinomoto Co., Inc., priority 2004, dated 2015).

What was measured:
Assay type in all cases: cell-based
B. subtilis 168 = assay: Growth on M9 glucose minimal agar with purine analogues, control strain; details: 48 h at 34° C.
Protocol: (§1) The pYDHL3, pYDHL4 plasmids and the pMWMX1 vector were used to transform wild-type B. subtilis strain 168 via standard techniques. Transformants were selected on L-broth agar plates with 10 μg/ml erythromycin. Thus, the strains B. subtilis 168(pMWMX1), B. subtilis 168(pYDHL3) and B. subtilis 168(pYDHL4) were obtained. Then, the ability of these strains to grow in the presence of purine base analogues was determined on M9 glucose minimal agar plates (minimal medium M9, glucose-2%, vitamin assay casamino acids (Difco)—0.1%, tryptophan—100 μg/ml) containing graded concentrations of a purine analogue. The plates were spotted with 10^5 to 10^6 cells from an overnight culture grown on the above agar plates without the analogues. The growth was estimated after 48 h incubation at 34° C.

B. subtilis 168(pYDHL3) = assay: Growth on M9 glucose minimal agar with purine analogues, ydhLBs-amplified strain; details: 48 h at 34° C. Further: key: +: good growth; −: no growth.
Protocol: as §1

B. subtilis 168(pYDHL4) = assay: Growth on M9 glucose minimal agar with purine analogues, ydhLBa-amplified strain; details: 48 h at 34° C. Further: key: +: good growth; −: no growth.
Protocol: as §1

[1] = tested on: E. coli deoD gsk3 (pMW118); assay: Growth on minimal medium with inosine or guanosine, vector control strain; further: key: +: good growth; −: no growth
Protocol: (§2) The pYDHL1 plasmid and the vector were used to transform the E. coli strain TG1 (Amersham Pharmacia Biotech) via standard techniques. Transformants were selected on L-broth agar plates with 100 μg/ml ampicillin. Thus, the E. coli strains TG1 (pYDHL1) and TG1 (pMW118) were obtained. Then the ability of these strains to grow in the presence of purine base analogues was determined on M9 glucose minimal agar plates containing graded concentrations of an inhibitor. The plates were spotted with 10^5 to 10^6 cells from an overnight culture grown in a minimal medium (supplemented with 100 μg/ml of ampicillin). The growth was estimated after 44 h incubation at 37° C.
(§3) The pYDHL1 plasmid and the pMW118 vector were also transformed into the E. coli strain TG1 deoD gsk3. The E. coli strain TG1 deoD gsk3 was an especially constructed parental strain which is used for checking the resistance to inosine and guanosine. This strain was obtained by sequential introduction of a deoD mutation, as described in PCT application WO9903988 and gsk3 mutation described by Petersen C. (J. Biol. Chem., 274, 5348-5356, 1999) using phage P1-mediated transduction into the known strain TG1 (VKPM B-5837), which is resistant to inosine and guanosine due to its ability to degrade purine. The strain TG1 deoD gsk3 cannot degrade guanosine and inosine due to a deoD mutation (WO9903988), and it is sensitive to nucleosides due to a gsk3 mutation (Petersen C. J. Biol. Chem., 274, 5348-5356, 1999). Thus, the strains TG1 deoD gsk3 (pYDHL1) and TG1 deoD gsk3 (pMW118) were obtained. Then the ability of these strains to grow in the presence of inosine and guanosine was determined as above.

[2] = tested on: E. coli deoD gsk3 (pYDHL1); assay: Growth on minimal medium with inosine or guanosine, ydhL-amplified strain; details: for Resistance conferred by ydhL gene overexpression: summary in words of Table 2, pYDHL1 versus pMW118; on Growth on the minimal medium containing Guanosine 10 mg/l: key: +: good growth; −: no growth; on Growth on the minimal medium containing Guanosine 15 mg/l: key: +: good growth; −: no growth; on Growth on the minimal medium containing Inosine 1000 mg/l: key: +: good growth; −: no growth; on Growth on the minimal medium containing Inosine 300 mg/l: key: +: good growth; −: no growth
Protocol: as §2, §3

[3] = tested on: E. coli strain TG1 (pYDHL1); assay: Growth on M9 glucose minimal agar with purine base analogues, ydhL-amplified strain; details: 44 h at 37° C. Further: key: +: good growth; −: no growth.
Protocol: as §2

[4] = tested on: E. coli strain TG1 (pMW118); assay: Growth on M9 glucose minimal agar with purine base analogues, vector control strain; details: 44 h at 37° C. Further: key: +: good growth; −: no growth.
Protocol: as §2

Nc1nc2nn[nH]c2c(=O)[nH]1 [AzaG, 8-azaguanine]
Growth on the minimal medium containing AzaG, 2 μg/ml (B. subtilis 168; AzaG 2 μg/ml): − | Growth on the minimal medium containing AzaG, 10 μg/ml (B. subtilis 168; AzaG 10 μg/ml): − | Growth on the minimal medium containing AzaG, 2 μg/ml (B. subtilis 168(pYDHL3); AzaG 2 μg/ml): + | Growth on the minimal medium containing AzaG, 2 μg/ml (B. subtilis 168(pYDHL4); AzaG 2 μg/ml): + | Growth on the minimal medium containing AzaG, 10 μg/ml (B. subtilis 168(pYDHL4); AzaG 10 μg/ml): +

Cc1ncnc2nc[nH]c12 [MePur, 6-methylpurine]
Growth on the minimal medium containing MePur, 20 μg/ml (B. subtilis 168; MePur 20 μg/ml): − | Growth on the minimal medium containing MePur, 20 μg/ml (B. subtilis 168(pYDHL3); MePur 20 μg/ml): + | Growth on the minimal medium containing MePur, 20 μg/ml (B. subtilis 168(pYDHL4); MePur 20 μg/ml): +

OC[C@H]1O[C@@H](n2cnc3c(O)ncnc32)[C@H](O)[C@@H]1O [Inosine]
Growth on the minimal medium containing Inosine 300 mg/l ([1]; inosine 300 mg/l): − | Growth on the minimal medium containing Inosine 1000 mg/l ([1]; inosine 1000 mg/l): − | Growth on the minimal medium containing Inosine 300 mg/l ([2]; inosine 300 mg/l, E. coli deoD gsk3 (pYDHL1)): + | Growth on the minimal medium containing Inosine 1000 mg/l ([2]; inosine 1000 mg/l, E. coli deoD gsk3 (pYDHL1)): + | Resistance conferred by ydhL gene overexpression [2]: high-level resistance

Nc1ncnc2nn[nH]c12 [AzaA, 8-azaadenine]
Growth on the minimal medium containing AzaA, 2 mg/ml (B. subtilis 168; AzaA 2 mg/ml): − | Growth on the minimal medium containing AzaA, 300 μg/ml ([3]; AzaA 300 μg/ml): + | Growth on the minimal medium containing AzaA, 2 mg/ml (B. subtilis 168(pYDHL4); AzaA 2 mg/ml): + | Growth on the minimal medium containing AzaA, 300 μg/ml ([4]; AzaA 300 μg/ml): −

Sc1ncnc2nc[nH]c12 [MP, 6-mercaptopurine]
Growth on the minimal medium containing MP, 400 μg/ml ([3]; MP 400 μg/ml): + | Growth on the minimal medium containing MP, 400 μg/ml ([4]; MP 400 μg/ml): −

Nc1nc(N)c2[nH]cnc2n1 [DAP, 2,6-diaminopurine]
Growth on the minimal medium containing DAP, 400 μg/ml ([3]; DAP 400 μg/ml): + | Growth on the minimal medium containing DAP, 400 μg/ml ([4]; DAP 400 μg/ml): −

Nc1nc2c(ncn2[C@@H]2O[C@H](CO)[C@@H](O)[C@H]2O)c(=O)[nH]1 [Guanosine]
Growth on the minimal medium containing Guanosine 10 mg/l ([1]; guanosine 10 mg/l): − | Growth on the minimal medium containing Guanosine 15 mg/l ([1]; guanosine 15 mg/l): − | Growth on the minimal medium containing Guanosine 10 mg/l ([2]; guanosine 10 mg/l, E. coli deoD gsk3 (pYDHL1)): + | Growth on the minimal medium containing Guanosine 15 mg/l ([2]; guanosine 15 mg/l, E. coli deoD gsk3 (pYDHL1)): − | Resistance conferred by ydhL gene overexpression [2]: low-level resistance
